In US20200131227A1, “POLYPEPTIDE WITH TUMOUR BINDING ACTIVITY” (RUPRECHT-KARLS-UNIVERSITÄT HEIDELBERG, priority 2017, published 2020):
Values joined by “and” are separate entries in the source; they are usually repeats but may differ in a detail not shown here. Equal entries are not always repeated. *1 amine or outer side, *2 acyl side, *3 side chain or, on linkers, in order; H or OH if unused. Bridges are numbered along the chain shown (N, C = ends). Roman numbers before positions name the chains, in order. Where no end group is shown, it is not given here. [ ]: non-standard residue; d: D form. The star is where a group is joined. ξ: configuration not given here. DOTA = O=C(O)CN1CCN(CC(=O)O)CCN(CC(=O)*)CCN(CC(=O)O)CC1; 125I = iodine-125 label on tyrosine, [125I]*; X1 = O=C(CO/N=C/C(=O)[*:2])[*:1]; ξK = NCCCCC(N)C(=O)O; ξS = NC(CO)C(=O)O

Tests used:
[1] = tested on: Capan-2 cells
[2] = tested on: carcinoma cell lines; experiment: In vitro binding of radiolabeled peptides to several carcinoma cell lines; assay type: cell-based, human; conditions: for binding of ^125I-labeled peptide with unlabeled peptide as competitor: co-incubation with 10^-6 M unlabeled peptide, 60 min, all cell lines tested
Procedure: (§1) For binding studies, 2.5×10^5 to 4×10^5 cells were seeded in 6-well plates and cultivated for 48 hours. Cells were incubated for 60 min with 1 mL serum-free medium containing the ^125I-labeled peptide (see above). For competition experiments, cells were simultaneously exposed to unlabeled (10^-4 M to 10^-10 M) and ^125I-labeled peptides. After three washing steps with PBS (pH 7.4) the cells were lysed with 0.5 mL of 0.3 M NaOH. Experiments concerning the internalization, kinetics and efflux were additionally performed with ^177Lu-DOTA-SFITGv6. To evaluate kinetics and efflux HNO97 cells were incubated for different time intervals (10 min to 480 min) and 60 min, respectively, with ^177Lu-DOTA-SFITGv6 and lysed as described. To continue with the efflux experiment radioactive medium was replaced by non-radioactive medium and cells were incubated again for 60 to 240 min before measuring radioactivity of the cell lysates and the medium. For internalization experiments the cells were exposed to ^177Lu-DOTA-SFITGv6 for different time intervals (10 to 240 min) at 37° C. and 4° C. After three washing steps with PBS the cells were incubated with 1 mL of glycine-HCl 50 mmol/L in PBS (pH 2.8) for 10 min at RT to remove the surface bound activity. Then, cells were washed with 3 mL of ice-cold PBS and lysed as described. Radioactivity was determined in a gamma counter and calculated as percentage of the applied dose per 1×10^6 cells. Experiments were performed three times, and three repetitions per independent experiment were acquired.
(§2) For the assessment of the peptide binding capacity in vitro, 2.5-4×10^5 cells were seeded into 6-well plates and cultivated for 48 h. ^125I-labeled peptide resuspended in 1 mL serum-free medium was added and incubated for either 10 min or 60 min with or without different concentrations of unlabeled peptide (10^−4-10^−11 M). Afterwards, cell monolayers were washed three times with 1 mL phosphate-buffered saline (pH 7.4) to remove unbound peptide and the cells were harvested with 1.4 mL lysis buffer (0.3 M NaOH). To evaluate kinetic properties the cells were exposed to ^177Lu-DOTA-labeled peptides for 10, 30, 60, 120, and 240 min, respectively, and lysed as described. For the efflux experiments the cells were incubated with ^177Lu-DOTA-labeled peptides for 60 min. Thereafter, radioactive medium was replaced by non-radioactive medium and cell monolayers were incubated for additional 60, 120, and 240 min and afterwards lysed as described earlier. The internalization was assessed after exposure of the cells to ^177Lu-DOTA-labeled peptides for 10, 30, 60, 120, and 240 min at 37° C. Unspecifically bound peptide was removed from the surface by incubation with 1 M glycine-HCl solution (pH 2.2) for 10 min. The monolayer cell was rinsed with PBS and cells were lysed as described before. Radioactivity was determined in a y-counter and calculated as percentage of the applied dose per 1×10^6 cells. Experiments were performed three times, and three repetitions per independent experiment were acquired.

[3] = tested on: HNO97 cells; experiment: In vitro binding, kinetics, internalization and efflux on HNO97 cells; assay type: cell-based, human
Procedure: as §1, §2

[4] = tested on: UM-UC-5 cells; experiment: In vitro binding on UM-UC-5 cells; assay type: cell-based, human; conditions: 60 min; percent applied dose/10^6 cells
Procedure: as §1, with “Then, cells were washed with 3 mL of ice-cold PBS and lysed as described.” left out, “Experiments were performed three times, and three repetitions per independent experiment were acquired.” left out

[5] = tested on: HNO210 cells; experiment: In vitro binding on HNO210 cells; assay type: cell-based, human; conditions: 60 min; percent applied dose/10^6 cells
Procedure: For binding studies, 2.5×10^5 to 4×10^5 cells were seeded in 6-well plates and cultivated for 48 hours. Cells were incubated for 60 min with 1 mL serum-free medium containing the ^125I-labeled peptide (see above). For competition experiments, cells were simultaneously exposed to unlabeled (10^-4 M to 10^-10 M) and ^125I-labeled peptides. After three washing steps with PBS (pH 7.4) the cells were lysed with 0.5 mL of 0.3 M NaOH. Experiments concerning the internalization, kinetics and efflux were additionally performed with ^177Lu-DOTA-SFITGv6. […] To continue with the efflux experiment radioactive medium was replaced by non-radioactive medium and cells were incubated again for 60 to 240 min before measuring radioactivity of the cell lysates and the medium. […] Radioactivity was determined in a gamma counter and calculated as percentage of the applied dose per 1×10^6 cells. […]
For the assessment of the peptide binding capacity in vitro, 2.5-4×10^5 cells were seeded into 6-well plates and cultivated for 48 h. ^125I-labeled peptide resuspended in 1 mL serum-free medium was added and incubated for either 10 min or 60 min with or without different concentrations of unlabeled peptide (10^−4-10^−11 M). […] The internalization was assessed after exposure of the cells to ^177Lu-DOTA-labeled peptides for 10, 30, 60, 120, and 240 min at 37° C. […]

[6] = tested on: HNO258 cells; experiment: In vitro binding on HNO258 cells; assay type: cell-based, human; conditions: 60 min; percent applied dose/10^6 cells
Procedure: as §1, with “Then, cells were washed with 3 mL of ice-cold PBS and lysed as described.” left out, “Experiments were performed three times, and three repetitions per independent experiment were acquired.” left out

[7] = tested on: LUDLU-1 cells; experiment: In vitro binding on LUDLU-1 cells; assay type: cell-based, human; conditions: 60 min; percent applied dose/10^6 cells
Procedure: as §1, with “Then, cells were washed with 3 mL of ice-cold PBS and lysed as described.” left out, “Experiments were performed three times, and three repetitions per independent experiment were acquired.” left out

[8] = tested on: HT29 cells; experiment: In vitro binding on HT29 cells; assay type: cell-based, human; conditions: 60 min; percent applied dose/10^6 cells
Procedure: as §1, with “Then, cells were washed with 3 mL of ice-cold PBS and lysed as described.” left out, “Experiments were performed three times, and three repetitions per independent experiment were acquired.” left out

[9] = tested on: HNO399 cells; experiment: In vitro binding on HNO399 cells; assay type: cell-based, human; conditions: 60 min; percent applied dose/10^6 cells
Procedure: as §2, with “To evaluate kinetic properties the cells were exposed to ^177Lu-DOTA-labeled peptides for 10, 30, 60, 120, and 240 min, respectively, and lysed as described.” left out, “The internalization was assessed after exposure of the cells to ^177Lu-DOTA-labeled peptides for 10, 30, 60, 120, and 240 min at 37° C.” left out

[10] = Serum stability assay (radio-HPLC); assay type: in vitro ADME, human
Procedure: Five MBq of the purified ^131I-radiolabeled peptide was incubated in 300 μL human serum at 37° C. After different time intervals (15 min to 24 hours) 20 μL serum was precipitated with 40 μL acetonitrile. The stability of the labeled peptide in the supernatant was monitored by radio-HPLC at selected time points using a chromolith performance RP18ec column (3 mm×100 mm) equipped with a gamma detector (Packard COBRA™ Auto-Gamma, GMI). Separation condition was a gradient of 0% to 60% aqueous acetonitrile supplemented with 0.1% TFA over 10 min with a flow rate of 2 mL/min.

[11] = tested on: MCF-7 cells; experiment: In vitro binding on MCF-7 cells; assay type: cell-based, human; conditions: 60 min; percent applied dose/10^6 cells
Procedure: as §1, with “Then, cells were washed with 3 mL of ice-cold PBS and lysed as described.” left out, “Experiments were performed three times, and three repetitions per independent experiment were acquired.” left out

| Substance | IC50 [1] [nM] | competition of binding by non-radioactively labeled counterpart ([2]; 10^−6 M competitor, all tested HNSCC cell lines) | competition of binding by unlabeled analog ([2]; 10^−6 M unlabeled analog) | average specific binding of ^125I-labeled peptide ([2]; HNO97, other HNSCC, lung, bladder and colon carcinoma cell lines) [%] | binding of ^125I-labeled peptide with unlabeled peptide as competitor [2] | retention of radioactivity in cells (efflux experiment) ([3]; 240 min after termination of the uptake (1 h exposure), of originally accumulated activity) | maximal uptake of ^125I-labeled peptide (kinetics) ([3]; after exposure for 60 min) [%] | internalization of ^125I-labeled peptide after decrease ([3]; decrease following the 60 min maximum) [%] | maximal internalization of ^125I-labeled peptide ([3]; within 60 min) | binding of ^125I-labeled peptide [4] [%] | binding of ^125I-labeled peptide [5] | binding of ^125I-labeled peptide [6] [%] | binding of ^125I-labeled peptide [7] [%] | binding of ^125I-labeled peptide [8] [%] | binding of ^125I-labeled peptide [9] [%] | proteolytic stability in human serum [10] | maximal uptake of ^125I-labeled peptide (kinetics) ([3]; after exposure for 120 min) [%] | uptake of ^125I-labeled peptide after decrease (kinetics) ([3]; decrease following the 120 min maximum) [%] | binding of ^125I-labeled peptide [11] [%] |
| --- | --- | --- | --- | --- | --- | --- | --- | --- | --- | --- | --- | --- | --- | --- | --- | --- | --- | --- | --- |
| I: GRCTGRGDLGRLCYPD-NH2 / II: GRCTGRGDLGRLCYPD-NH2 / III: GRCTGRGDLGRLCYPD-NH2 / IV: {DOTA}-G[ξS]G[ξS][ξK]G[ξS]G[ξS][ξK]G[ξS]G[ξS][ξK]-NH2 (disulfide I:3-I:13, II:3-II:13, III:3-III:13; linker I:N-IV:15, II:N-IV:10, III:N-IV:5 via X1) [^125I-DOTA-SFLAP3-trimer] | 0.76 | – | – | – | – | – | – | – | – | – | – | – | – | – | – | – | – | – | – |
| ^125I-SFITGv6: ^125I-labeled SFITGv6 (GRCTFRGDLMQLCY(125I)PD; disulfide 3-13) | – | almost completely competed | more than 90% | 7 | below 1 % of the applied dose | less than 5% | 37.3 | 12.6 | up to 24.1% | 10.4 | 7.1% and 10.5% | 3.5 | 4.3 | 2.8 | 9.8 | no degradation over a 24 hours | – | – | – |
| ^125I-SFPF-10: ^125I-labeled peptide SFPF-10 (GRCTFRGDKMQLCY(125I)PD; disulfide 3-13 (inferred)) | – | – | – | – | below 1 % of the applied dose | – | – | – | – | 7.5 | – | 2.6 | – | – | – | – | 12.6 | 6.7 | 1.6 |
